# Assay results taken from patent publication US12617779B2, “Self degradation-type CDK9 inhibitor prodrug and liposome encapsulating same” (Sumitomo Pharma Co., Ltd., priority 2021, dated 2026).
# Legend:
# [1] = Evaluation of conversion rate to active form in human plasma (Experimental Example 3); type: in vitro ADME; conditions: 0.2 μmol/L, 37° C.; for Residual rate (%) of test compound: Human plasma; for Conversion to Alvocidib in human plasma: Examples up to 60 minutes, Comparative Examples up to 120 minutes
# Procedure, shortened: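 LC-MS/MS (positive ESI) followed the parent and released Alvocidib during 37° C incubation of 0.2 μmol/L compound in human or BALB/c mouse plasma, sampled at 0/30/60 or 0/60/120 min. Remaining parent is expressed versus the 0-min peak; conversion versus a 0.2 μmol/L Alvocidib standard.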
# [2] = Evaluation of conversion rate to active form in buffer solution (Experimental Example 1); type: physicochemical; conditions: for Production rate of Alvocidib / Residual rate: 25 umol/L in buffer solution; for Stability in buffer solution at pH 5: pH 5, 37° C., up to 2 or 3 hours; for Conversion to Alvocidib at pH 7.4: pH 7.4, 37° C., up to 3 hours
# Procedure, shortened: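 Compounds at 25 umol/L were held at 37 °C in 50 mM citrate (pH 5.0, 5.5) or phosphate (pH 6.0–7.4) buffers. Remaining compound and Alvocidib formed were quantified by HPLC at 0, 0.5, 1, 2 and 3 h.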
smiles,measurement,setting,value
"CN1CC[C@H](c2c(OC(=O)N(C)C[C@H]3CCCCN3)cc(O)c3c(=O)cc(-c4ccccc4Cl)oc23)[C@H](O)C1 [Example 4, 2-(2-chlorophenyl)-5-hydroxy-8-[(3S,4R)-3-hydroxy-1-methylpiperidin-4-yl]-4-oxo-4H-1-benzopyran-7-yl methyl{[(2R)-piperidin-2-yl]methyl}carbamate]",Residual rate (%) of test compound,[1]; 0 min,100%
same,Residual rate (%) of test compound,[1]; 30 min,4%
same,Residual rate (%) of test compound,[1]; 60 min,4%
same,Conversion to Alvocidib in human plasma,[1],proceeded rapidly
same,Production rate of Alvocidib,"[2]; pH5.0, 0 hr, 37° C.",0.5%
same,Residual rate,"[2]; pH5.0, 0 hr, 37° C.",99.3%
same,Stability in buffer solution at pH 5,[2],stable
same,Production rate of Alvocidib,"[2]; pH5.0, 0.5 hr, 37° C.",0.8%
same,Residual rate,"[2]; pH5.0, 0.5 hr, 37° C.",98.5%
same,Production rate of Alvocidib,"[2]; pH5.0, 1 hr, 37° C.",1.1%
same,Residual rate,"[2]; pH5.0, 1 hr, 37° C.",98.0%
same,Production rate of Alvocidib,"[2]; pH5.0, 2 hr, 37° C.",1.7%
same,Residual rate,"[2]; pH5.0, 2 hr, 37° C.",96.8%
same,Production rate of Alvocidib,"[2]; pH5.0, 3 hr, 37° C.",2.3%
same,Residual rate,"[2]; pH5.0, 3 hr, 37° C.",95.6%
same,Production rate of Alvocidib,"[2]; pH5.5, 0 hr, 37° C.",0.4%
same,Residual rate,"[2]; pH5.5, 0 hr, 37° C.",99.2%
same,Production rate of Alvocidib,"[2]; pH5.5, 0.5 hr, 37° C.",1.5%
same,Residual rate,"[2]; pH5.5, 0.5 hr, 37° C.",97.1%
same,Production rate of Alvocidib,"[2]; pH5.5, 1 hr, 37° C.",2.2%
same,Residual rate,"[2]; pH5.5, 1 hr, 37° C.",95.5%
same,Production rate of Alvocidib,"[2]; pH5.5, 2 hr, 37° C.",4.0%
same,Residual rate,"[2]; pH5.5, 2 hr, 37° C.",91.4%
same,Production rate of Alvocidib,"[2]; pH5.5, 3 hr, 37° C.",5.5%
same,Residual rate,"[2]; pH5.5, 3 hr, 37° C.",87.9%
same,Production rate of Alvocidib,"[2]; pH6.0, 0 hr, 37° C.",0.4%
same,Residual rate,"[2]; pH6.0, 0 hr, 37° C.",99.3%
same,Production rate of Alvocidib,"[2]; pH6.0, 0.5 hr, 37° C.",3.7%
same,Residual rate,"[2]; pH6.0, 0.5 hr, 37° C.",91.9%
same,Production rate of Alvocidib,"[2]; pH6.0, 1 hr, 37° C.",6.4%
same,Residual rate,"[2]; pH6.0, 1 hr, 37° C.",85.6%
same,Production rate of Alvocidib,"[2]; pH6.0, 2 hr, 37° C.",12.0%
same,Residual rate,"[2]; pH6.0, 2 hr, 37° C.",72.4%
same,Production rate of Alvocidib,"[2]; pH6.0, 3 hr, 37° C.",16.6%
same,Residual rate,"[2]; pH6.0, 3 hr, 37° C.",61.7%
same,Production rate of Alvocidib,"[2]; pH6.5, 0 hr, 37° C.",0.5%
same,Residual rate,"[2]; pH6.5, 0 hr, 37° C.",99.3%
same,Production rate of Alvocidib,"[2]; pH6.5, 0.5 hr, 37° C.",9.0%
same,Residual rate,"[2]; pH6.5, 0.5 hr, 37° C.",79.5%
same,Production rate of Alvocidib,"[2]; pH6.5, 1 hr, 37° C.",15.1%
same,Residual rate,"[2]; pH6.5, 1 hr, 37° C.",65.1%
same,Production rate of Alvocidib,"[2]; pH6.5, 2 hr, 37° C.",26.1%
same,Residual rate,"[2]; pH6.5, 2 hr, 37° C.",39.7%
same,Production rate of Alvocidib,"[2]; pH6.5, 3 hr, 37° C.",32.7%
same,Residual rate,"[2]; pH6.5, 3 hr, 37° C.",24.9%
same,Production rate of Alvocidib,"[2]; pH7.0, 0 hr, 37° C.",0.6%
same,Residual rate,"[2]; pH7.0, 0 hr, 37° C.",98.8%
same,Production rate of Alvocidib,"[2]; pH7.0, 0.5 hr, 37° C.",21.3%
same,Residual rate,"[2]; pH7.0, 0.5 hr, 37° C.",51.3%
same,Production rate of Alvocidib,"[2]; pH7.0, 1 hr, 37° C.",31.6%
same,Residual rate,"[2]; pH7.0, 1 hr, 37° C.",27.7%
same,Production rate of Alvocidib,"[2]; pH7.0, 2 hr, 37° C.",41.1%
same,Residual rate,"[2]; pH7.0, 2 hr, 37° C.",0.0%
same,Production rate of Alvocidib,"[2]; pH7.0, 3 hr, 37° C.",43.3%
same,Residual rate,"[2]; pH7.0, 3 hr, 37° C.",0.0%
same,Production rate of Alvocidib,"[2]; pH7.4, 0 hr, 37° C.",0.8%
same,Residual rate,"[2]; pH7.4, 0 hr, 37° C.",98.4%
same,Conversion to Alvocidib at pH 7.4,[2],rapidly converted to Alvocidib
same,Production rate of Alvocidib,"[2]; pH7.4, 0.5 hr, 37° C.",34.8%
same,Residual rate,"[2]; pH7.4, 0.5 hr, 37° C.",21.5%
same,Production rate of Alvocidib,"[2]; pH7.4, 1 hr, 37° C.",42.0%
same,Residual rate,"[2]; pH7.4, 1 hr, 37° C.",0.0%
same,Production rate of Alvocidib,"[2]; pH7.4, 2 hr, 37° C.",44.6%
same,Residual rate,"[2]; pH7.4, 2 hr, 37° C.",0.0%
same,Production rate of Alvocidib,"[2]; pH7.4, 3 hr, 37° C.",44.6%
same,Residual rate,"[2]; pH7.4, 3 hr, 37° C.",0.0%
"CCCN(C[C@@H]1CCCCN1)C(=O)Oc1cc(O)c2c(=O)cc(-c3ccccc3Cl)oc2c1[C@H]1CCN(C)C[C@H]1O [Example 5, 2-(2-chlorophenyl)-5-hydroxy-8-[(3S,4R)-3-hydroxy-1-methylpiperidin-4-yl]-4-oxo-4H-1-benzopyran-7-yl {[(2S)-piperidin-2-yl]methyl}propylcarbamate]",Residual rate (%) of test compound,[1]; 0 min,100%
same,Residual rate (%) of test compound,[1]; 30 min,1%
same,Residual rate (%) of test compound,[1]; 60 min,0%
same,Conversion to Alvocidib in human plasma,[1],proceeded rapidly
same,Efficiency of conversion to Alvocidib,"[2]; buffer solution, 37° C.",higher efficiency
same,Production rate of Alvocidib,"[2]; pH5.0, 0 hr, 37° C.",0.0%
same,Residual rate,"[2]; pH5.0, 0 hr, 37° C.",98.7%
same,Stability in buffer solution at pH 5,[2],stable
same,Production rate of Alvocidib,"[2]; pH5.0, 0.5 hr, 37° C.",0.6%
same,Residual rate,"[2]; pH5.0, 0.5 hr, 37° C.",98.3%
same,Production rate of Alvocidib,"[2]; pH5.0, 1 hr, 37° C.",1.1%
same,Residual rate,"[2]; pH5.0, 1 hr, 37° C.",97.8%
same,Production rate of Alvocidib,"[2]; pH5.0, 2 hr, 37° C.",2.3%
same,Residual rate,"[2]; pH5.0, 2 hr, 37° C.",96.7%
same,Production rate of Alvocidib,"[2]; pH5.0, 3 hr, 37° C.",3.4%
same,Residual rate,"[2]; pH5.0, 3 hr, 37° C.",95.8%
same,Production rate of Alvocidib,"[2]; pH5.5, 0 hr, 37° C.",0.0%
same,Residual rate,"[2]; pH5.5, 0 hr, 37° C.",98.3%
same,Production rate of Alvocidib,"[2]; pH5.5, 0.5 hr, 37° C.",1.2%
same,Residual rate,"[2]; pH5.5, 0.5 hr, 37° C.",97.2%
same,Production rate of Alvocidib,"[2]; pH5.5, 1 hr, 37° C.",2.1%
same,Residual rate,"[2]; pH5.5, 1 hr, 37° C.",96.4%
same,Production rate of Alvocidib,"[2]; pH5.5, 2 hr, 37° C.",3.9%
same,Residual rate,"[2]; pH5.5, 2 hr, 37° C.",94.5%
same,Production rate of Alvocidib,"[2]; pH5.5, 3 hr, 37° C.",5.7%
same,Residual rate,"[2]; pH5.5, 3 hr, 37° C.",92.7%
same,Production rate of Alvocidib,"[2]; pH6.0, 0 hr, 37° C.",0.0%
same,Residual rate,"[2]; pH6.0, 0 hr, 37° C.",98.7%
same,Production rate of Alvocidib,"[2]; pH6.0, 0.5 hr, 37° C.",3.6%
same,Residual rate,"[2]; pH6.0, 0.5 hr, 37° C.",95.2%
same,Production rate of Alvocidib,"[2]; pH6.0, 1 hr, 37° C.",6.6%
same,Residual rate,"[2]; pH6.0, 1 hr, 37° C.",92.2%
same,Production rate of Alvocidib,"[2]; pH6.0, 2 hr, 37° C.",12.8%
same,Residual rate,"[2]; pH6.0, 2 hr, 37° C.",85.7%
same,Production rate of Alvocidib,"[2]; pH6.0, 3 hr, 37° C.",18.6%
same,Residual rate,"[2]; pH6.0, 3 hr, 37° C.",79.8%
same,Production rate of Alvocidib,"[2]; pH6.5, 0 hr, 37° C.",0.0%
same,Residual rate,"[2]; pH6.5, 0 hr, 37° C.",98.4%
same,Production rate of Alvocidib,"[2]; pH6.5, 0.5 hr, 37° C.",9.5%
same,Residual rate,"[2]; pH6.5, 0.5 hr, 37° C.",88.9%
same,Production rate of Alvocidib,"[2]; pH6.5, 1 hr, 37° C.",17.1%
same,Residual rate,"[2]; pH6.5, 1 hr, 37° C.",80.9%
same,Production rate of Alvocidib,"[2]; pH6.5, 2 hr, 37° C.",32.1%
same,Residual rate,"[2]; pH6.5, 2 hr, 37° C.",65.5%
same,Production rate of Alvocidib,"[2]; pH6.5, 3 hr, 37° C.",44.2%
same,Residual rate,"[2]; pH6.5, 3 hr, 37° C.",52.6%
same,Production rate of Alvocidib,"[2]; pH7.0, 0 hr, 37° C.",0.0%
same,Residual rate,"[2]; pH7.0, 0 hr, 37° C.",98.4%
same,Production rate of Alvocidib,"[2]; pH7.0, 0.5 hr, 37° C.",25.0%
same,Residual rate,"[2]; pH7.0, 0.5 hr, 37° C.",72.7%
same,Production rate of Alvocidib,"[2]; pH7.0, 1 hr, 37° C.",41.9%
same,Residual rate,"[2]; pH7.0, 1 hr, 37° C.",55.0%
same,Production rate of Alvocidib,"[2]; pH7.0, 2 hr, 37° C.",66.7%
same,Residual rate,"[2]; pH7.0, 2 hr, 37° C.",28.7%
same,Production rate of Alvocidib,"[2]; pH7.0, 3 hr, 37° C.",79.9%
same,Residual rate,"[2]; pH7.0, 3 hr, 37° C.",15.0%
same,Production rate of Alvocidib,"[2]; pH7.4, 0 hr, 37° C.",0.0%
same,Residual rate,"[2]; pH7.4, 0 hr, 37° C.",98.7%
same,Conversion to Alvocidib at pH 7.4,[2],rapidly converted to Alvocidib
same,Production rate of Alvocidib,"[2]; pH7.4, 0.5 hr, 37° C.",47.5%
same,Residual rate,"[2]; pH7.4, 0.5 hr, 37° C.",49.4%
same,Production rate of Alvocidib,"[2]; pH7.4, 1 hr, 37° C.",69.8%
same,Residual rate,"[2]; pH7.4, 1 hr, 37° C.",25.9%
same,Production rate of Alvocidib,"[2]; pH7.4, 2 hr, 37° C.",88.9%
same,Residual rate,"[2]; pH7.4, 2 hr, 37° C.",5.9%
same,Production rate of Alvocidib,"[2]; pH7.4, 3 hr, 37° C.",93.2%
same,Residual rate,"[2]; pH7.4, 3 hr, 37° C.",1.5%
